The source of these data is PubChem BioAssay AID192 (DTP/NCI, 2004).

SMILES strings stand for the structures. Several values for one entry are separate records, joined by “and”; a condition that tells them apart may be missing. Identical values can stand only once. Toxic doses and inconclusive results are not listed.

This assay deals with BDF1 mice, B16 melanoma ip, median survival T/C. As to the kind of experiment: NCI In Vivo Anticancer Drug Screen. Data for tumor model B16 Melanoma (intraperitoneal) in B6D2F1 (BDF1) mice. Conditions: endpoint: median survival time, higher = longer survival. The method, boiled down:
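Values are ratios of treated (T) to vehicle-control (C) measurements of survival or tumor size in tumor-bearing mice.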

The mark [1] stands for this setting: dose: 25.0 mg/kg/injection, schedule: Q01DX009 (ip), vehicle: saline with Tween-80.
The mark [2] stands for this setting: dose: 50.0 mg/kg/injection, schedule: Q01DX009 (ip), vehicle: saline with Tween-80.
[3] abbreviates: dose: 100.0 mg/kg/injection, schedule: Q01DX009 (ip), vehicle: saline with Tween-80.
The mark [4] stands for this setting: dose: 100.0 mg/kg/injection, schedule: Q01DX009 (ip), vehicle: Klucel (hydroxypropylcellulose) (HPC).
[5] abbreviates: dose: 200.0 mg/kg/injection, schedule: Q01DX009 (ip), vehicle: Klucel (hydroxypropylcellulose) (HPC).
Where [6] appears, read: dose: 6.25 mg/kg/injection, schedule: Q01DX009 (ip), vehicle: Klucel (hydroxypropylcellulose) (HPC).
The mark [7] stands for this setting: dose: 12.5 mg/kg/injection, schedule: Q01DX009 (ip), vehicle: Klucel (hydroxypropylcellulose) (HPC).
Setting [8] is: dose: 25.0 mg/kg/injection, schedule: Q01DX009 (ip), vehicle: Klucel (hydroxypropylcellulose) (HPC).
Setting [9] is: dose: 12.5 mg/kg/injection, schedule: Q01DX009 (ip), vehicle: saline with Tween-80.
Setting [10] is: dose: 50.0 mg/kg/injection, schedule: Q01DX009 (ip), vehicle: Klucel (hydroxypropylcellulose) (HPC).

On to `O=C(C1CO1)C(Cl)(Cl)Cl` (stereo not given), for which the T/C runs as follows: (dose: 12.5 mg/kg/injection, schedule: Q01DX009 (ip), vehicle: saline) 105 % of control; (dose: 25.0 mg/kg/injection, schedule: Q01DX009 (ip), vehicle: saline) 110 % of control.

Consider `NC(=O)Oc1ccc(Cc2ccccc2)cc1`, for which the T/C is 95 % of control (dose: 100.0 mg/kg/injection, schedule: Q04DX003 (ip), vehicle: Klucel (hydroxypropylcellulose) (HPC)); 91 % of control (dose: 200.0 mg/kg/injection, schedule: Q04DX003 (ip), vehicle: Klucel (hydroxypropylcellulose) (HPC)); 97 % of control (dose: 400.0 mg/kg/injection, schedule: Q04DX003 (ip), vehicle: Klucel (hydroxypropylcellulose) (HPC)).

`O=C1C(=O)c2ccccc2C(O)=C1CCCc1ccc(C2CCCCCC2)cc1`: the T/C reads like this: under setting [1], 123 % of control; under setting [2], 114 % of control.

On to `CCCCCCCCCCCC(=O)CC`, for which the T/C was 96 % of control (dose: 100.0 mg/kg/injection, schedule: Q01DX009 (ip), vehicle: other) and 87 % of control (dose: 200.0 mg/kg/injection, schedule: Q01DX009 (ip), vehicle: other).

On to `C(=C\c1cccnc1)/c1ccncc1`, for which the T/C by setting is: (dose: 66.0 mg/kg/injection, schedule: Q01DX009 (ip), vehicle: saline with Tween-80) 96 % of control; under setting [3], 93 % of control.

Turning to `COc1cc(/C=C2/c3cc(Cl)ccc3-c3c(Cl)cc(Cl)cc32)cc(OC)c1OC`, the T/C is 86 % of control (dose: 0.2 mg/kg/injection, schedule: Q01DX009 (ip), vehicle: saline with Tween-80); 86 % of control (dose: 0.4 mg/kg/injection, schedule: Q01DX009 (ip), vehicle: saline with Tween-80); 86 % of control (dose: 0.8 mg/kg/injection, schedule: Q01DX009 (ip), vehicle: saline with Tween-80).

As for `O=C(CCN1CC1)Nc1cccc(NC(=O)CCN2CC2)c1`, the T/C runs as follows: (dose: 2.5 mg/kg/injection, schedule: Q01DX009 (ip), vehicle: Klucel (hydroxypropylcellulose) (HPC)) 156 % of control; (dose: 5.0 mg/kg/injection, schedule: Q01DX009 (ip), vehicle: Klucel (hydroxypropylcellulose) (HPC)) 153 % of control and 173 % of control; (dose: 10.0 mg/kg/injection, schedule: Q01DX009 (ip), vehicle: Klucel (hydroxypropylcellulose) (HPC)) 211 % of control and 268 % of control.

In the case of `O=C(Cl)c1ccc(OC(Cl)(Cl)Cl)cc1`, the T/C reads like this: under setting [4], 100 % of control; under setting [5], 93 % of control; (dose: 400.0 mg/kg/injection, schedule: Q01DX009 (ip), vehicle: Klucel (hydroxypropylcellulose) (HPC)) 86 % of control.

Take `O=C(O)C1Cc2c([nH]c3ccccc23)C(CCCCO)N1` (stereo not given): the T/C is 99 % of control under setting [6], 101 % of control under setting [7] and 107 % of control under setting [8].

Consider `CN(C)N=Nc1ccnc2c(I)cccc12`, for which the T/C (dose: 25.2 mg/kg/injection, schedule: Q01DX008 (ip), vehicle: DMSO) was 92 % of control; the T/C (dose: 42.0 mg/kg/injection, schedule: Q01DX008 (ip), vehicle: DMSO) was 97 % of control; the T/C (dose: 70.0 mg/kg/injection, schedule: Q01DX008 (ip), vehicle: DMSO) was 99 % of control; the T/C (dose: 116.7 mg/kg/injection, schedule: Q01DX008 (ip), vehicle: DMSO) is 92 % of control.

On to `CCN(CC)CCOc1ccc2c(c1)C(=O)c1cc(OCCN(CC)CC)ccc1-2`, for which the T/C (dose: 13.0 mg/kg/injection, schedule: Q01DX009 (ip), vehicle: saline) was 124 % of control; the T/C (dose: 21.6 mg/kg/injection, schedule: Q01DX009 (ip), vehicle: saline) is 123 % of control; the T/C (dose: 100.0 mg/kg/injection, schedule: Q01DX009 (ip), vehicle: saline) was 124 % of control.

In the case of `Cc1nc2ccc(CCN3CCN(c4ccccc4Cl)CC3)cc2[nH]1`, the T/C reads like this: (dose: 4.12 mg/kg/injection, schedule: Q01DX009 (ip), vehicle: saline) 90 % of control; (dose: 8.25 mg/kg/injection, schedule: Q01DX009 (ip), vehicle: saline) 92 % of control.

On to `O=C(O)/C=C/c1ccc(/C=C/C(=O)O)cc1`, for which the T/C runs as follows: (dose: 100.0 mg/kg/injection, schedule: Q04DX003 (ip), vehicle: saline with Tween-80) 111 % of control; (dose: 200.0 mg/kg/injection, schedule: Q04DX003 (ip), vehicle: saline with Tween-80) 102 % of control; (dose: 400.0 mg/kg/injection, schedule: Q04DX003 (ip), vehicle: saline with Tween-80) 100 % of control.

With `COc1cc(C(C)(C)C)cc(OC)c1C(O)(c1c(OC)cc(C(C)(C)C)cc1OC)c1c(OC)cc(C(C)(C)C)cc1OC`, the T/C was 102 % of control (dose: 6.25 mg/kg/injection, schedule: Q01DX009 (ip), vehicle: saline with Tween-80); 116 % of control under setting [9]; 109 % of control under setting [1]; 121 % of control under setting [2]; 109 % of control under setting [3].

As to `CCNCc1cc(Nc2cc(C)nc(/N=C(\N)Nc3ccc(Cl)c(Cl)c3)n2)ccc1OC`, the T/C is 100 % of control under setting [6], 102 % of control under setting [7] and 91 % of control under setting [8].

Regarding `S=C(Nc1ccccn1)Nc1ccccn1`, the T/C runs as follows: under setting [8], 97 % of control; under setting [10], 104 % of control; under setting [4], 111 % of control.

`O=C(COc1ccc(Cl)cc1)Nc1ccccc1F`: the T/C runs as follows: under setting [1], 102 % of control; under setting [2], 92 % of control; under setting [3], 92 % of control.

Regarding `CCCc1ccc(OC)cc1`, the T/C is 97 % of control under setting [1], 105 % of control under setting [2] and 90 % of control under setting [3].

On to `CC(=O)OCC1OC(S[As](C)C)C(OC(C)=O)C(OC(C)=O)C1OC(C)=O` (stereo not given), for which the T/C reads like this: under setting [10], 107 % of control; under setting [4], 96 % of control.

Turning to `CCOC(=O)C1C(=O)C(CN(CCCl)CCCl)C(=O)C(C(=O)OCC)C1c1ccc(O)cc1` (stereo not given), the T/C under setting [7] is 158 % of control.

Regarding `Nc1ccc(-c2ccc3ccccc3n2)cc1`, the T/C is, setting by setting: under setting [6], 111 % of control; under setting [7], 104 % of control; under setting [8], 91 % of control.

As to `O=C(O)c1cc(-c2ccc(Cl)cc2)nc2c(-c3ccccc3)cccc12`, the T/C was 87 % of control under setting [9]; 105 % of control under setting [1]; 87 % of control and 94 % of control under setting [2]; 86 % of control under setting [3]; 87 % of control (dose: 200.0 mg/kg/injection, schedule: Q01DX009 (ip), vehicle: saline with Tween-80).

For the compound `CN(CCOc1ccccc1O)CCOc1ccccc1O`, the T/C runs as follows: under setting [4], 111 % of control; under setting [5], 105 % of control.
